Counter-ions that a name gives are not always drawn.
Experiments:
TNAP = target: T1, TNAP (Homo sapiens, UniProt P05186); experiment: TNAP inhibitory activity, colorimetric assay (alkaline phosphatase assay kit ab83369, pNPP substrate); assay type: biochemical; details: TNAP enzyme, 2 hours at room temperature, absorbance 405 nm
T1 sequence (P05186 18-502 limits assumed): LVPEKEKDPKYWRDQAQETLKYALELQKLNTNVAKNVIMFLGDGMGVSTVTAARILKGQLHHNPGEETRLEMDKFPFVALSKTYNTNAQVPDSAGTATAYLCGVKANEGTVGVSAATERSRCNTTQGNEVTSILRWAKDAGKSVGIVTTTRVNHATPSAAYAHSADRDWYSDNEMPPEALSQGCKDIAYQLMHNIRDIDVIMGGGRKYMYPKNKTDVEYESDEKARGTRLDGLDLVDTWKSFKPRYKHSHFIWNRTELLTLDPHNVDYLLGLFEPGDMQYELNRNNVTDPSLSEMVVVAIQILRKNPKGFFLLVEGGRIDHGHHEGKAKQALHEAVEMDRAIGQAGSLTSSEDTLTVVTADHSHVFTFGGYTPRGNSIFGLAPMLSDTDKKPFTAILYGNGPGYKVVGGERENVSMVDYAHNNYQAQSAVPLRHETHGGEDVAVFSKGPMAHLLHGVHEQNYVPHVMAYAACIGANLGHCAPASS
Description: The TNAP inhibitory activity of the compounds according to the present invention was analyzed by colorimetric assay.
The experiments were performed according to the protocol of the alkaline phosphatase assay kit ab83369.
TNAP enzyme at a concentration of 0.2 ng/µl was dispensed into a 96-well plate (Costar) (10 µl/well), to which the 10-fold diluted test substance was added (15 µl/well). The plate was incubated at room temperature, shielded from light, for 10 minutes to allow the enzyme and compound to act. After incubation, 125 µl of 1 mM substrate (pNPP) was added to each well of the plate, and the plate was incubated for 2 hours at room temperature in a darkened state to allow the enzyme, substrate, and test compound to act. Absorbance was measured at 405 nm using a microplate reader (Tecan spark), and IC50 was calculated using GraphPad Prism 9. The amount of p-nitrophenol produced was calculated through the absorbance, and the degree of TNAP activity inhibition was evaluated through the degree of inhibition of p-nitrophenol production, and the concentration of the compound that inhibited 50% was calculated as the IC50 value.

saos-2 cells = experiment: Anticalcification efficacy in saos-2 cells (osteogenic medium, Alizarin Red staining); assay type: cell-based; details: Homo sapiens, 168 h, test compound 1 µM, 7 days osteogenic medium, Alizarin Red absorbance 540 nm, read-out: calcification inhibition
Description: To confirm the inhibitory effect of calcification in saos-2 cells in which calcification is induced by overexpression of TNAP, saos-2 cells were cultured in a culture medium in an incubator at 37°C, 95% humidity, and 5% CO2. RPMI-1640 (Corning) supplemented with 10% FBS (Gibco) and 1% Pen/Strep (Gibco) was used as the culture medium.
Saos-2 cells were seeded in a 48-well plate at the density of 1.5 x 10^4 cells/well and used in the experiment when they reached 80-90% confluence after stabilization for 2 days.
After saos-2 cells were cultured in a 48-well plate to 80-90% confluence, the culture medium was removed and replaced with an osteogenic medium (OM). DMEM (Gibco) containing 10% FBS, 1% Pen/Strep, 100 nM dexamethasone (Sigma), 10 mM β-glycerophosphate (Sigma), and 0.05 mM L-ascorbic acid (Sigma) was used as the OM. Osteogenic differentiation of saos-2 cells by OM was induced for 7 days, and OM was replaced every 2 to 3 days.
When inducing calcification through OM in saos-2 cells, the cells were treated with concentrations of […] of the TNAP inhibitor test compounds with the OM replacement cycle, except for the control group (OM).
After 7 days of OM induction, the medium was removed from each well and the plate was washed twice with PBS. Cells were fixed with 4% paraformaldehyde for 1 hour, then the fixative was removed and washed twice with deionized water (DW). ARS solution was added to the plate and shaken for 1 hour to stain the cells. When the cells were sufficiently stained red, the dye was removed, the cells were washed carefully with DW, dried, and then photographs were taken of the stained cells. The red-stained area represents calcification induced by OM, and the degree of calcification was determined based on the degree of redness. To quantify this, 10% cetylpyridinium chloride was dispensed into the wells and the dye was dissolved. The dye-dissolved solution was transferred to each well of a 96 well plate and absorbance was measured at 540 nm.
The degree of decrease in the measured absorbance by the test compounds based on the absorbance for OM was evaluated as the degree of inhibition of calcification.

**Q.** How did the IC50 (TNAP) turn out when `O=C1NCc2ncc(NS(=O)(=O)c3cccc4c3OCC4)cc21` [Example 18, N-(5-oxo-6,7-dihydro-5H-pyrrolo[3,4-b]pyridine-3-yl)-2,3-dihydrobenzofuran-7-sulfonamide] was run?
**A.** The IC50 was ≥ 1000 nM.

**Q.** And the inhibition at 1 µM (saos-2 cells)?
**A.** The inhibition at 1 µM was < 0%.

**Q.** `COc1ccc(Br)cc1S(=O)(=O)Nc1cnc2c(c1)C(=O)NCCC2` [Example 14, 5-bromo-2-methoxy-N-(5-oxo-6,7,8,9-tetrahydro-5H-pyrido[3,2-c]azepine-3-yl)benzenesulfonamide] was tested. Which IC50 (TNAP) did it give?
**A.** Its IC50 is 100 to 1000 nM.

**Q.** What about the inhibition at 1 µM (saos-2 cells) of the same compound?
**A.** The inhibition at 1 µM was ≥ 50%.

**Q.** What does the source list for `CCOC(=O)C(C)(C)n1cc(-c2ccc(OC)c(S(=O)(=O)Nc3cnc4c(c3)C(=O)NCC4)c2)cn1` [Example 59, ethyl 2-(4-(4-methoxy-3-(N-(5-oxo-5,6,7,8-tetrahydro-1,6-naphthyridine-3-yl)sulfamoyl)phenyl)-1H-pyrazole-1-yl)-2-methylpropanoate]?
**A.** IC50 (TNAP): 100 to 1000 nM; inhibition at 1 µM (saos-2 cells): ≥ 50%

**Q.** What does the source list for `COc1ccc(F)cc1S(=O)(=O)Nc1cnc2c(c1)C(=O)NC2` [Example 4, 5-fluoro-2-methoxy-N-(5-oxo-6,7-dihydro-5H-pyrrolo[3,4-b]pyridine-3-yl)benzenesulfonamide]?
**A.** IC50 (TNAP): 10 to 100 nM; inhibition at 1 µM (saos-2 cells): ≥ 50%

**Q.** For `COc1ccc(Br)cc1S(=O)(=O)Nc1cnc2c(c1)C(=O)N(C)CC2` [Example 87, 5-bromo-2-methoxy-N-(6-methyl-5-oxo-5,6,7,8-tetrahydro-1,6-naphthyridine-3-yl)benzenesulfonamide], which IC50 (TNAP) is on record?
**A.** The IC50 was 100 to 1000 nM.

**Q.** What about the inhibition at 1 µM (saos-2 cells) of the same compound?
**A.** Its inhibition at 1 µM is < 0%.

**Q.** How did the IC50 (TNAP) turn out when `COc1ccc(-c2cnn(CC(=O)OC(C)(C)C)c2)cc1S(=O)(=O)Nc1cnc2c(c1)C(=O)NCC2` [Example 47, tert-butyl 2-(4-(4-methoxy-3-(N-(5-oxo-5,6,7,8-tetrahydro-1,6-naphthyridine-3-yl)sulfamoyl)phenyl)-1H-pyrazole-1-yl)acetate] was run?
**A.** The IC50 was 100 to 1000 nM.

**Q.** What about the inhibition at 1 µM (saos-2 cells) of the same compound?
**A.** Its inhibition at 1 µM is ≥ 50%.

**Q.** How did the IC50 (TNAP) turn out when `COc1ccc(-c2cnc(N)nc2C(F)(F)F)cc1S(=O)(=O)Nc1cnc2c(c1)C(=O)NCC2` [Example 78, 5-(2-amino-4-(trifluoromethyl)pyrimidine-5-yl)-2-methoxy-N-(5-oxo-5,6,7,8-tetrahydro-1,6-naphthyridine-3-yl)benzenesulfonamide] was run?
**A.** The IC50 was ≥ 1000 nM.

**Q.** And the inhibition at 1 µM (saos-2 cells)?
**A.** Its inhibition at 1 µM is < 0%.

**Q.** `CCOC(=O)C(C)n1cc(-c2ccc(OC)c(S(=O)(=O)Nc3cnc4c(c3)C(=O)NCC4)c2)cn1` (stereo not drawn) [Example 42, ethyl 2-(4-(4-methoxy-3-(N-(5-oxo-5,6,7,8-tetrahydro-1,6-naphthyridine-3-yl)sulfamoyl)phenyl)-1H-pyrazole-1-yl)propanoate] was tested. Which IC50 (TNAP) did it give?
**A.** The IC50 was ≤ 10 nM.

**Q.** What about the inhibition at 1 µM (saos-2 cells) of the same compound?
**A.** Its inhibition at 1 µM is ≥ 50%.

**Q.** With `O=C1NCc2ncc(NS(=O)(=O)c3c(F)cc(F)cc3Br)cc21` [Example 12, 2-bromo-4,6-difluoro-N-(5-oxo-6,7-dihydro-5H-pyrrolo[3,4-b]pyridine-3-yl)benzenesulfonamide] as the compound, how does the IC50 (TNAP) read?
**A.** The IC50 was ≥ 1000 nM.

**Q.** And the inhibition at 1 µM (saos-2 cells)?
**A.** Its inhibition at 1 µM is < 0%.

**Q.** With `O=C1NCCc2ncc(NS(=O)(=O)c3cc(Cl)cc4c3OCC4)cc21` [Example 22, 5-chloro-N-(5-oxo-5,6,7,8-tetrahydro-1,6-naphthyridine-3-yl)-2,3-dihydrobenzofuran-7-sulfonamide] as the compound, how does the IC50 (TNAP) read?
**A.** The IC50 was 100 to 1000 nM.

**Q.** What about the inhibition at 1 µM (saos-2 cells) of the same compound?
**A.** The inhibition at 1 µM was ≥ 50%.

**Q.** How did the IC50 (TNAP) turn out when `COc1ccc(Cl)cc1S(=O)(=O)Nc1cnc2c(c1)CN(C(=O)NC(C)C)CC2` [Example 104, 3-((5-chloro-2-methoxyphenyl)sulfonamido)-N-isopropyl-7,8-dihydro-1,6-naphthyridine-6(5H)-carboxamide] was run?
**A.** The IC50 was 10 to 100 nM.

**Q.** What about the inhibition at 1 µM (saos-2 cells) of the same compound?
**A.** Its inhibition at 1 µM is ≥ 50%.

**Q.** How did the IC50 (TNAP) turn out when `COc1ccc(C2=CCNCC2)cc1S(=O)(=O)Nc1cnc2c(c1)C(=O)NCC2` [Example 53, 2-methoxy-N-(5-oxo-5,6,7,8-tetrahydro-1,6-naphthyridine-3-yl)-5-(1,2,3,6-tetrahydropyridine-4-yl)benzenesulfonamide hydrochloride] was run?
**A.** Its IC50 is 100 to 1000 nM.

**Q.** What about the inhibition at 1 µM (saos-2 cells) of the same compound?
**A.** The inhibition at 1 µM was 0 to 50%.

**Q.** Which IC50 (TNAP) does the source give for `COc1ccc(-c2cn[nH]c2)cc1S(=O)(=O)Nc1cnc2c(c1)C(=O)NCC2` [Example 55, 2-methoxy-N-(5-oxo-5,6,7,8-tetrahydro-1,6-naphthyridine-3-yl)-5-(1H-pyrazole-4-yl)benzenesulfonamide] here?
**A.** Its IC50 is 100 to 1000 nM.

**Q.** And the inhibition at 1 µM (saos-2 cells)?
**A.** The inhibition at 1 µM was ≥ 50%.

**Q.** How did the IC50 (TNAP) turn out when `COc1ccc(OC)c(S(=O)(=O)Nc2cnc3c(c2)CN(C(=O)OC(C)(C)C)CC3)c1` [Example 89, tert-butyl 3-((2,5-dimethoxyphenyl)sulfonamido)-7,8-dihydro-1,6-naphthyridine-6(5H)-carboxylate] was run?
**A.** Its IC50 is 10 to 100 nM.

**Q.** What about the inhibition at 1 µM (saos-2 cells) of the same compound?
**A.** Its inhibition at 1 µM is ≥ 50%.

**Q.** `O=S(=O)(Nc1cnc2c(c1)CNCC2)c1cc(F)ccc1Br` [Example 91, 5-fluoro-2-bromo-N-(5,6,7,8-tetrahydro-1,6-naphthyridine-3-yl)benzenesulfonamide hydrochloride] was tested. Which IC50 (TNAP) did it give?
**A.** The IC50 was ≥ 1000 nM.

**Q.** And the inhibition at 1 µM (saos-2 cells)?
**A.** The inhibition at 1 µM was < 0%.

**Q.** For `CCOC(=O)N1CCc2ncc(NS(=O)(=O)c3cc(Br)ccc3OC)cc2C1` [Example 97, ethyl3-((5-bromo-2-methoxyphenyl)sulfonamido)-7,8-dihydro-1,6-naphthyridine-6(5H)-carboxylate], which IC50 (TNAP) is on record?
**A.** The IC50 was 100 to 1000 nM.

**Q.** And the inhibition at 1 µM (saos-2 cells)?
**A.** The inhibition at 1 µM was ≥ 50%.

**Q.** How did the IC50 (TNAP) turn out when `NCc1ccc(-c2cc(F)cc(F)c2S(=O)(=O)Nc2cnc3c(c2)C(=O)NCC3)cc1` [Example 40, 4'-(aminomethyl)-3,5-difluoro-N-(5-oxo-5,6,7,8-tetrahydro-1,6-naphthyridine-3-yl)-[1,1'-biphenyl]-2-sulfonamide hydrochloride] was run?
**A.** Its IC50 is ≥ 1000 nM.

**Q.** And the inhibition at 1 µM (saos-2 cells)?
**A.** The inhibition at 1 µM was < 0%.

**Q.** With `COc1ccc(Br)cc1S(=O)(=O)Nc1cnc2c(c1)CN(C(=O)OCC(C)(C)C)CC2` [Example 99, neopentyl3-((5-bromo-2-methoxyphenyl)sulfonamido)-7,8-dihydro-1,6-naphthyridine-6(5H)-carboxylate] as the compound, how does the IC50 (TNAP) read?
**A.** The IC50 was 100 to 1000 nM.

**Q.** And the inhibition at 1 µM (saos-2 cells)?
**A.** The inhibition at 1 µM was < 0%.

**Q.** What does the source list for `COc1ccc(C2=CCCOC2)cc1S(=O)(=O)Nc1cnc2c(c1)C(=O)NCC2` [Example 62, 5-(5,6-dihydro-2H-pyran-3-yl)-2-methoxy-N-(5-oxo-5,6,7,8-tetrahydro-1,6-naphthyridine-3-yl)benzenesulfonamide]?
**A.** IC50 (TNAP): 10 to 100 nM; inhibition at 1 µM (saos-2 cells): ≥ 50%

**Q.** `COc1ccc(C2=CCN(C(=O)OC(C)(C)C)CC2)cc1S(=O)(=O)Nc1cnc2c(c1)C(=O)NCC2` [Example 52, tert-butyl 4-(4-methoxy-3-(N-(5-oxo-5,6,7,8-tetrahydro-1,6-naphthyridine-3-yl)sulfamoyl)phenyl)-3,6-dihydropyridine-1(2H)-carboxylate] was tested. Which IC50 (TNAP) did it give?
**A.** Its IC50 is 100 to 1000 nM.

**Q.** What about the inhibition at 1 µM (saos-2 cells) of the same compound?
**A.** The inhibition at 1 µM was ≥ 50%.

**Q.** `COC(=O)Cc1ccc(-c2ccc(OC)c(S(=O)(=O)Nc3cnc4c(c3)C(=O)NC4)c2)cc1` [Example 27, methyl 2-(4'-methoxy-3'-(N-(5-oxo-6,7-dihydro-5H-pyrrolo[3,4-b]pyridine-3-yl)sulfamoyl)-[1,1'-biphenyl]-4-yl)acetate] was tested. Which IC50 (TNAP) did it give?
**A.** The IC50 was 100 to 1000 nM.

**Q.** And the inhibition at 1 µM (saos-2 cells)?
**A.** The inhibition at 1 µM was ≥ 50%.

**Q.** Which results are given for `COc1ccc(Cl)cc1S(=O)(=O)Nc1cnc2c(c1)CN(C(=O)OCCF)CC2` [Example 101, 2-fluoroethyl-3-((5-chloro-2-methoxyphenyl)sulfonamido)-7,8-dihydro-1,6-naphthyridine-6(5H)-carboxylate]?
**A.** IC50 (TNAP): 10 to 100 nM; inhibition at 1 µM (saos-2 cells): < 0%

**Q.** Which IC50 (TNAP) does the source give for `COc1ccc(Cl)cc1S(=O)(=O)Nc1cncc(C(N)=O)c1` [SBD-425, reference compound] here?
**A.** Its IC50 is 100 to 1000 nM.
